Structures can show the parent of a compound that is named as a salt.
Experiments:
Assay type in all cases: in vivo
db/db mice [1] = assay: Serum glucose in db/db mice after two weeks (Example 4); conditions: compound alone 100 mg/kg
Procedure: (§1) • 8. Vehicle (1% hydroxypropylmethylcellulose) • 9. Compound BI 100 mg/kg • 10. Rosiglitazone (RSG) 3 mg/kg • 11. Compound BI 100 mg/kg+RSG 3 mg/kg • 12. Compound CF 100 mg/kg • 13. Compound CF 100 mg/kg+RSG 3 mg/kg • 14. Compound CT 100 mg/kg+RSG 3 mg/kg • 15. […]
(§2) After two weeks, blood samples were collected from the retro-orbital sinus and processed for serum chemistry measurements.

Adiponectin = assay: Serum adiponectin in db/db mice after two weeks (Example 4); conditions: for Adiponectin ± SD: db/db mice serum, compound alone 100 mg/kg; for effect on adiponectin with concurrent rosiglitazone (in words) / serum adiponectin, individual agents (in words): db/db mice; for effect on adiponectin with concurrent rosiglitazone (in words): 100 mg/kg + RSG 3 mg/kg; for serum adiponectin, individual agents (in words): agent alone
Description: Adiponectin is an glycoprotein secreted from white adipose tissue. Adiponectin improves insulin sensitive in other tissues, e.g. muscle and liver, and is also protective against atherosclerosis. Thiazolidinedione antidiabetic agents such as rosiglitazone or pioglitazone act largely via action at the PPAR-gamma, a nuclear receptor involved in regulation of fuel metabolism. PPAR-gamma agonists enhance adiponectin production by adipose tissue, and this may contribute to their beneficial effects in diabetes and related metabolic disorders.
as §1, §2

Male C57B1/6 mice = assay: Food intake and body weight of male C57Bl/6 mice under restricted feeding (Example 3); conditions: for Post-treatment Food Intake (5 Hour): 5 hour meal; for food intake (in words): restricted feeding paradigm; for Change in Body weight % / Change in Body weight (grams ± SEM) / Post-treatment Body weight: restricted feeding
Procedure: Animals. […] Food was withheld for the remainder of each day. Because of the restricted feeding time, the mice eat less than under ad libitum food availability. Therefore, reduction of food intake in this model requires a drug effect sufficient to overcome the hunger stimulus provided by subnormal daily food intake. Drug Administration. Groups of 10 mice each (individually weighed and marked, divided into 5/cage and trained and monitored as above; were dosed once per day with Compound BI (100 mg/kg), rosiglitazone (3 mg/kg), both drugs, or vehicle by oral gavage at 8 AM for four consecutive days. Comparator groups receiving appetite modulators not suitable for oral dosing (PYY and cerulenin) received intraperitoneal injections at 8 AM for four consecutive days. […] [table]

db/db mice [2] = assay: Serum glucose in db/db mice, combinations with rosiglitazone or pioglitazone, 4 weeks (Example 5); conditions: 4 weeks oral once per day
Procedure: Male db/db mice have a defect in the receptor for the appetite-regulating protein leptin and consequently develop hyperphagia, obesity, insulin resistance, hyperglycemia, hypertriglyceridemia. Male db/db mice are an accepted animal model for Type II diabetes. The effect of a range of single daily doses of orally administered Compound BI was assessed in this model, and the efficacy of rosiglitazone alone and in combination with Compound BI was also examined.
Male C57BL/Ksola db/db mice (“db/db mice”) were obtained from Harlan (Indianapolis, Ind.) and allowed to acclimate for a minimum of one week.
Body weights and blood glucose levels were measured and animals were sorted groups of 6-7 mice with equivalent mean body weights in each group. […].
• 12. Vehicle • 13. Compound BI 100 mg/kg/day • 14. Rosiglitazone 3 mg/kg • 15. Rosiglitazone 3 mg/kg+Compound BI 100 mg/kg • 16. Pioglitazone 30 mg/kg • 17. Pioglitazone 30 mg/kg+Compound BI 100 mg/kg • 18. Pioglitazone 100 mg/kg • 19. Pioglitazone 100 mg/kg+Compound BI 100 mg/kg
Drug preparation: Compound BI was suspended in a vehicle comprising 1% aqueous hydroxypropylmethylcellulose, using a tissue homogenizer to minimize particle size and maximize uniformity of the suspension. Pioglitazone and rosiglitazone were suspended in the same vehicle after pulverization of commercial tablets of each of these drugs. Drug concentrations in the dosing suspension for each treatment group were adjusted according to body weights so that a constant volume of 0.4 ml provided appropropriate drug doses in all groups.
Drug Administration: Drugs were administered orally by gavage once per day for 28 days.
Blood sampling: For serum chemistry analysis, nonfasting blood samples (200 microliters) were obtained via the retro-orbital sinus and collected in serum separator tubes at 11 AM on day 28 after initiation of drug administration.

[3] = PYY 100 mg/kg i.p. once per day
[4] = Cerulenin 30 mg/kg i.p. once per day

Row | Compound | Glucose ± SD (db/db mice [1]) | Adiponectin ± SD (Adiponectin) | effect on adiponectin with concurrent rosiglitazone (in words) (Adiponectin) | serum adiponectin, individual agents (in words) (Adiponectin) | food intake (in words) (Male C57B1/6 mice) | other results
1 | Cc1cccc(C)c1COc1cccc(CC(=O)NO)c1 [Compound CT, N-Hydroxy-2-[3-(2,6-dimethylbenzyloxy)phenyl]acetamide] | 235 ± 107 mg/dL | 5.4 ± 1.5 micrograms/ml | strongly amplify the effect of concurrent rosiglitazone on adiponectin | did not elevate serum adiponectin levels |  | 
2 | Peptide YY fragment 3-36 human [PYY] |  |  |  |  | failed to have an effect | Post-treatment Food Intake (5 Hour) (Male C57B1/6 mice; [3]): 2.28 ± 0.25 grams; Change in Body weight % (Male C57B1/6 mice; [3]): −0.96 ± 0.50%; Change in Body weight (grams ± SEM) (Male C57B1/6 mice; [3]): −0.20 ± 0.10 grams; Post-treatment Body weight (Male C57B1/6 mice; [3]): 20.86 ± 0.33 grams
3 | C/C=C/C/C=C/CCC(=O)[C@H]1O[C@H]1C(N)=O [Cerulenin] |  |  |  |  | failed to have an effect | Post-treatment Food Intake (5 Hour) (Male C57B1/6 mice; [4]): 2.45 ± 0.10 grams; Change in Body weight % (Male C57B1/6 mice; [4]): +0.81 ± 0.49%; Change in Body weight (grams ± SEM) (Male C57B1/6 mice; [4]): +0.16 ± 0.10 grams; Post-treatment Body weight (Male C57B1/6 mice; [4]): 21.18 ± 0.66 grams
4 | CCc1ccc(CCOc2ccc(CC3SC(=O)NC3=O)cc2)nc1 (centres unmarked) [PIO, pioglitazone hydrochloride] |  |  |  |  |  | Serum Glucose (mg/dL) Mean ± SD (db/db mice [2]; PIO 30 mg/kg): 550 ± 74 mg/dL; Serum Glucose (mg/dL) Mean ± SD (db/db mice [2]; PIO 100 mg/kg): 597 ± 228 mg/dL
5 | Cc1cccc(C)c1COc1cccc(CC(=O)O)c1 [Compound CF, 3-(2,6-Dimethylbenzyloxy)phenylacetic acid] | 305 ± 75 mg/dL | 6.5 ± 2.0 micrograms/ml | strongly amplify the effect of concurrent rosiglitazone on adiponectin | did not elevate serum adiponectin levels |  | 
